Source: ChEMBL document CHEMBL3638784, “Fused bicyclic oxazolidinone CETP inhibitor” (2014)
pIC50: −log10 of the molar value.

Molecular target: T1, Cholesteryl ester transfer protein (Homo sapiens, UniProt P11597)
T1 sequence (P11597 whole entry): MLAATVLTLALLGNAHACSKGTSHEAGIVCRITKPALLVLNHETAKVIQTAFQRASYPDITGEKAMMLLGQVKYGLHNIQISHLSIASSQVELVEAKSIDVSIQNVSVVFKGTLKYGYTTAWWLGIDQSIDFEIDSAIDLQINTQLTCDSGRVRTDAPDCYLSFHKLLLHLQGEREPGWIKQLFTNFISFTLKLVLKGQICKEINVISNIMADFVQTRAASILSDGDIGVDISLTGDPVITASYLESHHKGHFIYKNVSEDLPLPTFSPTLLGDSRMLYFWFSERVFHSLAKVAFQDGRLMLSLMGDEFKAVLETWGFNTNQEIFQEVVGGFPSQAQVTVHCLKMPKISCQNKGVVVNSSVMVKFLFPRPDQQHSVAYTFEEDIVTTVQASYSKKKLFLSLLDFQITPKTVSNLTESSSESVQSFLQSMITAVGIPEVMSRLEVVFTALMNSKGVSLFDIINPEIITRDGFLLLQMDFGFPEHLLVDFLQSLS
Experiment: Scintillation Proximity Assay (SPA): First, low density lipoprotein (LDL) (Meridian) was biotinylated by incubating LDL with biotin for 1 hour on ice, after which it was dialyzed to remove free biotin. Then compounds at varying concentrations were incubated with 15 nM CETP (reagent production group, In Vitro Pharmacology, MRL Rahway) and 50 ug/ml of the biotinylated LDL in 50 mM HEPES, 150 mM NaCl, pH 7.4, for 1 hour at 37° C. The reaction was started by adding 3H-cholesterol ester high density lipoprotein (HDL) (American Radiochemicals Corp) at a concentration of ~0.6 nM. The reaction proceeded for 2 hours at 37° C., after which time it was quenched by the addition of 12% acetic acid. PVT streptavadin-coated scintillation proximity beads, which had been brought to room temperature, were then added at a concentration of 4 mg/ml. The assay was then mixed and counted after one half hour in a Microbeta plate reader.

N#Cc1cccc(-c2ccc(C(F)(F)F)cc2[C@@H]2CC[C@H]3[C@@H](c4cc(C(F)(F)F)cc(C(F)(F)F)c4)OC(=O)N23)c1
pIC50: 6.75
